Laboratory results published in patent US7045626B2, “Quinoline derivatives, process for preparing them and use for the treatment of diseases mediated by s-CD23” (SmithKline Beecham p.l.c., priority 2001, dated 2006).

Experiments:
[1] = molecular target: T1, human recombinant collagenase (Homo sapiens, UniProt P03956); assay: Collagenase inhibition assay; format: biochemical; conditions: 37° C., 18 h, 3H type 1 bovine collagen; read-out: IC50, collagenase inhibition (procedure 2)
T1 construct: made in house; host or cells: E. coli
T1 sequence (P03956 100-469): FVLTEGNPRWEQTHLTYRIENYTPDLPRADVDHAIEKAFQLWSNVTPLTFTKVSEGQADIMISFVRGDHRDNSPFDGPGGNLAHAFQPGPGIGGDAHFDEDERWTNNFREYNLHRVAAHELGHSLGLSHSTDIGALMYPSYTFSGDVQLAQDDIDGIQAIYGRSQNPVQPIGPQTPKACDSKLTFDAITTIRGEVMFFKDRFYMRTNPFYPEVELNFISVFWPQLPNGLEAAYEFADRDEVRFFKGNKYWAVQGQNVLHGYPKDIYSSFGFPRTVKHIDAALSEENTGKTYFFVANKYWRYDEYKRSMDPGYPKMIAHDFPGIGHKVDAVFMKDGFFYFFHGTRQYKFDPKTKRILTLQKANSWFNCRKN
Experimental: Procedure 2: The ability of test compounds to inhibit matrix metalloproteases was investigated using the following procedures.
Collagenase Inhibition Assay:
The potency of compounds to act as inhibitors of collagenase was determined by the method of Cawston and Barrett (Anal. Biochem. 99, 340–345, 1979), hereby incorporated by reference, whereby a 1 mM solution of the inhibitor being tested or dilutions thereof, was incubated at 37° C. for 18 h with collagen and human recombinant collagenase, from synovial fibroblasts cloned, expressed and purified from E. Coli, (buffered with 150 mM Tris, pH 7.6, containing 15 mM calcium chloride, 0.05% Brij 35, 200 mM sodium chloride and 0.02% sodium azide). The collagen was acetylated ^3H type 1 bovine collagen prepared by the method of Cawston and Murphy (methods in Enzymology 80, 711,1981) The samples were centrifuged to sediment undigested collagen and an aliquot of the radioactive supernatant removed for assay on a scintillation counter as a measure of hydrolysis. The collagenase activity in the presence of 1 mM inhibitor, or dilution thereof, was compared to activity in a control devoid of inhibitor and the results reported as that concentration effecting 50% of the collagenase (IC50).

MMP-3 = molecular target: T2, MMP-3 (Homo sapiens, UniProt P08254); assay: General MMP inhibition assay (fluorescence quench); format: biochemical; conditions: inhibitor up to 100 uM
T2 construct: purchased Calbiochem
Experimental: (§1) General MMP Inhibition Assays:
(§2) Inhibition of matrix metalloprotease activity was determined using a fluorescence quench assay with appropriate substrate. For example, MMP activity was determined using MMP activated using trypsin, according to Lark et al, Connective Tissue Res. 25, 52 (1990). The MMP is incubated at room temperature in a microtitre plate in a total volume of 100 ul, containing 0.15 M Tris Cl, 15 mM CaCl2, 0.2 M NaCl, pH 7.6 (assay buffer); inhibitor at concentrations up to 100 uM, with no more than 2% DMSO final concentration, 10 uM substrate (such as SDP-3815-PI for MMP-1, Peptides International). The MMP concentration is <10 nM, and determined empirically with the appropriate substrate to give at least a 20-fold increase in fluorescence emission in 30 min. Fluorescent excitation wavelength was 355 nm, emission wavelength 400–460 nm, and data points are collected to generate slope (change in fluorescence with time). Percent inhibition for each concentration is calculated from the slope at time zero, and IC50 values from the concentration dependence. MMP-1, 2, 3, 7, 9, 13, 14 may all be assayed in the same manner, using commercially available substrates reported to be effective for each enzyme. Enzymes were obtained from Calbiochem and activated using the same trypsin method.

MMP-13 = molecular target: T3, MMP-13 (Homo sapiens, UniProt P45452); assay: General MMP inhibition assay (fluorescence quench); format: biochemical; conditions: inhibitor up to 100 uM
T3 construct: purchased Calbiochem
Experimental: as §1, §2

[2] = system: release of soluble CD23 from RPMI 8866 cell plasma membranes; assay: RPMI 8866 cell membrane CD23 cleavage activity assay; format: biochemical, human; conditions: RPMI 8866 plasma membranes, 37° C., sCD23 by EIA; read-out: IC50, inhibition of production of sCD23
Experimental: Procedure 1: The ability of test compounds to inhibit the release of soluble CD23 was investigated by use of the following procedure.
RPMI 8866 Cell Membrane CD23 Cleavage Activity Assay:
Plasma membranes from RPMI 8866 cells, a human Epstein-Barr virus transformed B-cell line (Sarfati et al., Immunology 60 [1987] 539–547) expressing high levels of CD23 are purified using an aqueous extraction method. Cells resuspended in homogenization buffer (20 mM HEPES pH 7.4, 150 mM NaCl, 1.5 mM MgCl2, 1 mM DTT) are broken by N2 cavitation in a Parr bomb and the plasma membrane fraction mixed with other membranes is recovered by centrifugation at 10,000×g. […]
The fractionated membranes are incubated at 37° C. for times up to 4 hrs to produce fragments of CD23 which are separated from the membrane by filtration in 0.2 micron Durapore filter plates (Millipore) after quenching the assay with a non-selecitve MMP inhibitor, e.g. 5 uM Preparation 1 from WO 95/31457 ([4-(N-Hydroxyamino)-2-(R)-isobutyl-3-(S)-(2-thiophenethiomethyl)succinyl]-(S)-phenylalanine-N-methylamide sodium salt, prepared according to the procedure described in Example 11 of WO 90/05719). sCD23 released from the membrane is determined using the EIA kit from The Binding Site (Birmingham, UK) or a similar one utilising MHM6 anti-CD23 mAb [Rowe et al., Int. […]

T2 sequence (P08254 100-477, species assumed): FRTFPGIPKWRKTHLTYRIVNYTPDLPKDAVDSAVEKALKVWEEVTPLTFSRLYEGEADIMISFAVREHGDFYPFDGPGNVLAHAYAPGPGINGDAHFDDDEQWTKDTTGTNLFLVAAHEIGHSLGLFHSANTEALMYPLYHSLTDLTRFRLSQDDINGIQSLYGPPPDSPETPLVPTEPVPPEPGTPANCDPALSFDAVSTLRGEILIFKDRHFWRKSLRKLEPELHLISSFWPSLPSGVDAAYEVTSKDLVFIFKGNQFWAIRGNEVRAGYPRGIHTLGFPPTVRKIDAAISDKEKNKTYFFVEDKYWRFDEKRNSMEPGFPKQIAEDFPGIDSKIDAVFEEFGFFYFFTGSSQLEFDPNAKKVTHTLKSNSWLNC

IC50 [1]: 100 µM
IC50 (MMP-3): > 100 µM
IC50 (MMP-13): 6 µM
IC50 [2]: 0.06 µM
SMILES: O=CN(O)[C@H](CS(=O)(=O)Cc1cnc2ccccc2c1)[C@H]1CCCO1 [Example 1]
